“Also recorded” adds a separate entry of the source. Where two headings read alike, the source gives them in different places.
What was measured:
B. anthracis spores = settings: guinea pig, in vivo; cited from earlier work
[1] = Plasma or serum concentration in humans; settings: dose of about 10 to about 20 mg/day
[2] = tested on: spores (Bacillus cereus ATCC 10987); assay type: cell-based
[3] = tested on: Bacillus cereus ATCC 10987 spores; assay type: cell-based

Structure (SMILES)	death of infected animals during treatment (B. anthracis spores)	plasma or serum concentrations [1]	early germination (Gram stain) [2]	minimum concentration to inhibit outgrowth [2]	outgrowth into vegetative cells [2]	development of spores into vegetative cells (Gram stain) ([2]; time=40 min)	development of spores into vegetative cells (Gram stain) ([2]; time=60 min)	rate of decrease in absorbance in the presence and absence of COL-3 [3]	inhibition of the early phase (initial stages) of germination ([3]; 37° C.)
CN(C)[C@@H]1C(O)=C(C(N)=O)C(=O)[C@@]2(O)C(O)=C3C(=O)c4c(O)cccc4[C@@](C)(O)[C@H]3C[C@@H]12 [tetracycline]	prevented death	–	–	–	–	–	–	–	–
NC(=O)C1=C(O)C[C@@H]2C[C@@H]3Cc4cccc(O)c4C(=O)C3=C(O)[C@]2(O)C1=O [COL-3, 6-demethyl-6-deoxy-4-de(dimethylamino)tetracycline]	–	about 1.0 μg/ml	occurred in both the presence and absence of COL-3	1 μg per ml	inhibited	no further development	do not develop	not significantly different	did not inhibit; also recorded: no effect

From US20070015739A1, “Use of non-antibacterial tetracycline formulations for inhibiting bacterial spores” (priority 2005, published 2007)
